Measured values reported in patent US8188119B2, “Pyridine derivatives substituted with heterocyclic ring and γ-glutamylamino group, and antifungal agents containing same” (Eisai R&D Management Co., Ltd, priority 2008, dated 2012).
Values after ≈ are worked out from the molar mass of the structure shown. Read-outs that look alike come from different tables or passages of the source.

How the values were obtained:
[1] = Comparative test of solubility in water (Britton-Robinson buffer); type: physicochemical; conditions: for solubility: aqueous buffer, Britton-Robinson buffer (ionic strength: 0.3), 25° C.; for Solubility in water compared with the parent compound: conclusion from Table 1
[2] = Pharmacokinetic evaluation of compound of Example 1 in mice (plasma concentration, LC-MS/MS); type: in vivo; conditions: female ICR mice, tail vein, 3 mg/kg
Protocol: 1. Pharmacokinetic Evaluation of Compound of Example 1 in Mice […] The blood samples were put in sampling tubes and stored under ice cooling, after which they were centrifuged for 5 minutes at 10,500×g and at 4° C. The plasma thus obtained was accurately divided into 10 μL amounts and stored at −20° C. until they were analyzed. The plasma concentrations of the compound of Example 1 and the active form thereof were measured using a liquid chromatography mass spectrometer (LC-MS/MS: Waters, Quattro Ultima Pt), and quantified by internal standard method. […] MultiScreen™) and analyzed by LC-MS/MS (Waters, Quattro Ultima Pt). In the chromatogram thus obtained, the surface area of the peaks for the compound of Example 1, the active form thereof (the parent compound of the compound of Example 1), and the internal standard substance were analyzed with analytic software (Waters: MassLynx 4.0), and the concentration of the compound included in the plasma was calculated by internal standard method. The active form concentration after administration of the compound of Example 1 was corrected with the molecular weight ratio, that is, the value of (the molecular weight of the compound of Example 1)/(the molecular weight of the active form).

[3] = buffer
[4] = Pharmacokinetic evaluation of compounds of Examples 2 and 3 in mice (plasma concentration, LC-MS); type: in vivo; conditions: female ICR mice, tail vein, 3 mg/kg as active form equivalent; for Plasma concentration of the administered compound: 20 min to 8 h; for Plasma concentration of the administered compound / Concentration of the active form in plasma after administration of the compound: FIG. 2
Protocol: 2. Pharmacokinetic Evaluation of Compound of Examples 2 and 3 in Mice
The compounds of Examples 2 and 3 were dissolved in respective concentrations of 1 and 1.5 mg/mL with 5% glucose (Otsuka Pharmaceutical) containing a 10 mM hydrochloric acid solution (Wako Pure Chemicals), and the active form was dissolved in a concentration of 0.5 mg/mL in 5% glucose (Otsuka Pharmaceutical) containing a 10 mM hydrochloric acid solution (Wako Pure Chemicals).
Using seven-week-old female ICR mice (Charles River Japan), with two mice per group, the compound of the present invention and the active form thereof were administered into the tail vein in a dose of 3 mg/kg, calculated as an active form equivalent. The tail vein was punctured 20 minutes, 45 minutes, and 1.5, 3, 5, and 8 hours after administration, and blood was collected with a heparin-treated pipette. The blood samples were put in sampling tubes and stored under ice cooling, after which they were centrifuged for 5 minutes at 10,500×g and at 4° C. The plasma thus obtained was accurately divided into 5 μL amounts and stored at −20° C. until they were analyzed.
The plasma concentrations of the compounds of Examples 2 and 3 and the active form thereof were measured using a liquid chromatography mass spectrometer (LC-MS: Waters, ZQ mass detector), and quantified by internal standard method. Imipramine hydrochloride (Sigma) was dissolved in a mixed solution of acetonitrile and methanol (9:1) so that the concentration would be 1 μmol/L, to prepare an internal standard substance solution (IS solution). The plasma was melted, after which 50 μL of IS solution was added thereto and mixed while still cooled with ice, and this was centrifuged (deproteinated) for 10 minutes at 1607×g and at 4° C., after which the supernatant was analyzed by LC-MS (Waters, ZQ mass detector). In the chromatogram thus obtained, the surface area of the peaks for the compounds of Examples 2 and 3, the active form thereof, and the internal standard substance were analyzed with analytic software (Waters: MassLynx 4.0), and the concentration of the compound included in the plasma was calculated by internal standard method.

[5] = Stability in solution in Britton-Robinson buffer; conditions: Britton-Robinson buffer (ionic strength: 0.3), 25° C.
[6] = pH 3, read-out: Solubility (mg/mL) pH 3
[7] = pH 7, read-out: Solubility (mg/mL) pH 7

Row | solubility [1, 6] [mg/mL] | solubility [1, 7] [mg/mL] | Conversion into the active form in the bodies of the mice [2] | Plasma concentration of the administered compound ([2]; FIG. 1) | Stability in solution (remainder (%) after 24 h in dark place) pH 3 [3] [%] | Stability in solution (remainder (%) after 24 h in dark place) pH 7 [3] [%] | Conversion into the active form in the bodies of the mice [4] | Plasma concentration of the administered compound [4] | Concentration of the active form in plasma after administration of the compound [4] | Stability in solution (remainder (%) after 24 h in dark place) pH 2 ([5]; pH 2 (printed in pH 3 column), 24 h in dark place) | Stability in solution (remainder (%) after 24 h in dark place) pH 4 ([5]; pH 4 (printed in pH 3 column), 24 h in dark place) | Stability in solution (remainder (%) after 24 h in dark place) pH 7 ([5]; pH 7, 24 h in dark place) [%] | SMILES | Solubility in water compared with the parent compound [1] | Plasma concentration of the active form after administration of the compound ([2]; FIG. 1)
1 | 1.1 (≈ 2260 µM) | 0.3 (≈ 615 µM) | rapidly converted into the active form | decreased quickly after administration | 96 | 92 | – | – | – | – | – | – | N[C@@H](CCC(=O)Nc1ncccc1-c1cc(Cc2ccc(COc3ccccn3)cc2)no1)C(=O)O [Example 1, (S)-2-Amino-4-(3-(3-(4-(pyridin-2-yloxymethyl)-benzyl)-isoxazol-5-yl)-pyridin-2-ylcarbamoyl)-butyric acid] | higher solubility in water than does the parent compound | increased quickly from immediately after administration
2 | 12 (≈ 21500 µM) | 1.1 (≈ 1970 µM) | – | – | 116 | 82 | rapidly converted into the active form | not detected | rose sharply after administration | – | – | – | CN(C)CCOC(=O)[C@@H](N)CCC(=O)Nc1ncccc1-c1cc(Cc2ccc(COc3ccccn3)cc2)no1 [Example 3, (S)-2-Amino-4-(3-{3-[4-(pyridin-2-yloxymethyl)-benzyl]-isoxazol-5-yl}-pyridin-2-ylcarbamoyl)-butyric acid 2-dimethylamino-ethyl ester] | higher solubility in water than does the parent compound | –
3 | 0.29 (≈ 809 µM) | 0.001 (≈ 2.79 µM) | – | – | – | – | – | – | – | 90 (pH 2) % | 99 (pH 4) % | 95 | Nc1ncccc1-c1cc(Cc2ccc(COc3ccccn3)cc2)no1 [Parent compound, 3-(3-(4-(Pyridin-2-yloxymethyl)-benzyl)-isoxazol-5-yl)-pyridin-2-ylamine] | – | –
4 | 45 (≈ 89700 µM) | 0.2 (≈ 399 µM) | – | – | 88 | 44 | rapidly converted into the active form | not detected | rose sharply after administration | – | – | – | COC(=O)[C@@H](N)CCC(=O)Nc1ncccc1-c1cc(Cc2ccc(COc3ccccn3)cc2)no1 [Example 2, (S)-2-Amino-4-(3-{-[4-(pyridin-2-yloxymethyl)-benzyl]soxazol-5-yl}-pyridin-2-ylcarbamoyl)-butyric acid methyl ester] | higher solubility in water than does the parent compound | –
